Key:
Exon1-Q46 aggregates [1] = molecular target: T1, Exon1-Q46 aggregates (Homo sapiens, UniProt P42858, INS38QQQQQQQQQQQQQQQQQQQQQQQQQ); assay: RBA saturation binding, recombinant Exon1-Q46 aggregates
T1 construct: MBP-HTT(1-89)Q46-His(6x); MBP (N, cleaved yes); made in house; host or cells: E. coli BL21 (DE3)
Experimental: For N-terminal tag cleavage, proteins at 30 µM in 2 mL reaction tubes were incubated with 150 µg/mL thrombin (Sigma, T4648) in 50 mM Tris (pH 8.0), 150 mM NaCl, 2 mM CaCl2 for 16 h at 37 °C.
For radioligand binding assays (RBA) (see below) and radiometric filter trap assays (RAFTA) (see below), aggregates were separated by centrifugation (5 min 16,000×g) and resuspended with assay buffer (50 mM Tris pH 8.0, 150 mM NaCl) (see Supplementary Fig. S2B). Protein concentrations always refer to the starting peptide concentrations (i.e., peptide concentration applied in the aggregation reaction before thrombin cleavage) since post-cleaved aggregates are heterogeneous and the number of peptides per aggregate is unknown.
(§1) Samples were then transferred onto a 96-well GF/B filter plate (Perkin Elmer, #6005177) using a Filtermate Harvester, aspirated by vacuum and wells washed twice with 200 µL PBS. After drying the filter plates for 1 h at 55 °C the back of the plate was sealed with aluminum cover and 30 µL of scintillation fluid (Perkin Elmer, #6013641) per well was added. The tops of the plates were sealed, and the plates were incubated for 15 min in the dark and counted in a TopCount or MicroBeta2 reader (both Perkin Elmer).
(§2) For saturation binding experiments, aggregate lysate preparation and final concentration in the assay, assay buffer, incubation times and plate processing were identical to the competition format. Radioligand was titrated up to 100 nM. Raw cpm were converted into nM using a calibration line of total added radioligand without washing and filtering (spiked onto the filter plate and dried) (e.g., X) and normalized to the concentration of protein (e.g., Y) to finally obtain […] (e.g., X/Y). Specific binding (SB) was calculated as full binding minus full competition (in the presence of excess unlabeled ligand) and a hyperbolic mono-phasic fit was applied using GraphPad Prism to determine Kd and Bmax.

[2] = ARG, human post-mortem CTRL frontal cortex sections; assay type: binding
[3] = molecular target: mHTT aggregates in HOM zQ175 HD mouse brain sections; assay: In vitro autoradiography (ARG) saturation binding, HOM zQ175 brain sections; details: HOM zQ175 12 months, cortex
Experimental: (§3) Twenty µm-thick sections were prepared from brains of disease mouse models and WT mice or human post-mortem brain samples by using a cryostat, mounted on superfrost slides and stored at -80 °C for a maximum of 2 weeks. On the day of the experiment, slides were adapted to room temperature for 30 min and then equilibrated by immersion into assay buffer (50 mM Tris–HCl pH 7.4; 120 mM NaCl; 5 mM KCl; 2 mM CaCl2; 1 mM MgCl2) for 20 min at room temperature.
(§4) Radioligand solutions were prepared in assay buffer. Optimal radioligand concentrations were determined in advance based on signal-to-background ratio obtained in mouse or human brain tissue. The solutions were mixed in a Coplin jar (Sigma, S5516-6EA) by gently shaking at 175 rpm for 10 min at room temperature. Sections were incubated by immersion into assay buffer containing either only radioligand (total binding or TB) or radioligand plus 10 µM of unlabeled compound (non-specific binding or NSB) for 60 min at room temperature. Afterwards slides were washed three times for 10 min with ice-cold washing buffer (50 mM Tris–HCl (pH 7.4)) at 4 °C and dipped for three seconds in ice-cold distilled water to remove buffer salts. […]

[4] = system: mHTT aggregates in R6/2 mice brain sections; assay: In vitro ARG, R6/2 mouse brain sections; assay type: binding; details: 4-, 8- and 12-week-old R6/2 mice
Experimental: as §3, §4

zQ175 brain homogenates = assay: Whole brain homogenate RBA saturation binding, HOM zQ175; design: species or system mouse; details: HOM zQ175 12 months whole brain homogenate
Experimental: For RBA in vitro binding assays, brain tissue was sliced (50 µm), weighed and homogenized in PBS (Gibco, 14190-94), 0.1% BSA with a glass pestle (10 strokes) at a concentration of 12–15 mg wet tissue per mL buffer. The crude homogenate concentration was then adjusted to 10 mg/mL (wet tissue) and stored as single-use aliquots at -80 °C.
as §2

[5] = molecular target: phospho-Tau tangles (AT8 antibody) (Homo sapiens, UniProt P10636); assay: HR ARG co-registration with AT8 antibody, human AD brain sections; assay type: binding; details: 10 nM CHDI-180, 10 nM CHDI-626, 0.1 nM PiB, 1 nM T808
Exon1-Q46 aggregates [6] = molecular target: T1, Exon1-Q46 aggregates; assay: RAFTA saturation binding, recombinant Exon1-Q46 aggregates
Q46 aggregates = assay: RBA competition binding against tritiated 3, Q46 aggregates; details: 0.3 nM tritiated 3 as radioligand; 1 µM aggregates; mean ± SD
Experimental: For the competition assay format, Q46 or Exon1-Q46 aggregates at 1 µM (sample volume 150 µL) were pre-incubated in a 96-well round bottom plate (Corning, #3365) for 20 min with test compounds at room temperature (assay buffer 50 mM Tris–HCl pH 8.0, 150 mM NaCl). […] Radioligand 3 at 0.3 nM was added and incubated for 1 h at 37 °C.
as §1
Raw sample data collected as counts per minute (cpm) were normalized towards assay controls: 0% inhibition = radioligand + protein + vehicle, 100% inhibition = radioligand + protein + 1 µM unlabeled ligand. A 4-parameter […] fit was applied to generate IC50 values.

T1 sequence (P42858 with tags, fused parts or gaps with the stated changes): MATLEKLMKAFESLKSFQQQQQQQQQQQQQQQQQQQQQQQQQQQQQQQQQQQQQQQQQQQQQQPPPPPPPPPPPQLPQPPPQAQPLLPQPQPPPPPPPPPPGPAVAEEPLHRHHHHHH
Chain of phospho-Tau tangles (AT8 antibody) (P10636 623-695 limits assumed): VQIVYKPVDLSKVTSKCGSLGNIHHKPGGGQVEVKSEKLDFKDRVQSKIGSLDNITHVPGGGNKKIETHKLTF

Question: For `COc1ccc(COc2ccc3oc(-c4ccc(=O)n(C)n4)nc3c2)nc1` [CHDI-180], which Bmax (Exon1-Q46 aggregates [1]; representative single experiment (Fig. 2A)) is on record?
Answer: The Bmax was 0.3 nmol/μmol.

Question: And the Kd (Exon1-Q46 aggregates [1]; representative single experiment (Fig. 2A), read-out: Kd)?
Answer: The Kd was 3.2 nM.

Question: What about the Kd (Exon1-Q46 aggregates [1]; tritiated compound, mean ± SD, read-out: Kd Exon1-Q46) of the same compound?
Answer: The Kd was 2.6 ± 0.9 nM.

Question: And the “NSB in CTRL brain sections” value ([2]; 1 nM radioligand plus cold compound)?
Answer: Its value is “below 0.5 fmol/mg tissue”.

Question: What about the “binding to frontal cortical sections, CTRL tissue” value ([2]; 1 nM radioligand, gray matter) of the same compound?
Answer: The value was 0.8 ± 0.3 fmol/mg tissue.

Question: What about the Kd [3] of the same compound?
Answer: The Kd was 1.1 nM.

Question: What about the “ARG Bmax” value ([3]; per mg tissue) of the same compound?
Answer: The value was 163.0 fmol/mg.

Question: And the “specific binding to STR, CTX and HPC with age” value [4]?
Answer: The value was “age-dependent increase in specific binding”.

Question: And the Kd (zQ175 brain homogenates)?
Answer: Its Kd is 2.4 nM.

Question: What about the “RBA Bmax” value (zQ175 brain homogenates; per mg tissue) of the same compound?
Answer: Its value is 34.0 fmol/mg.

Question: What about the “co-registration with AT8-positive phospho-Tau immunoreactivity” value [5] of the same compound?
Answer: The value was “did not co-register”.

Question: And the Kd (Exon1-Q46 aggregates [6])?
Answer: The Kd was 5.6 nM.

Question: What about the “RAFTA Bmax” value (Exon1-Q46 aggregates [6]) of the same compound?
Answer: The value was 1456 fmol/mg.

Question: What about the IC50 (Q46 aggregates) of the same compound?
Answer: The IC50 was 1.2 ± 0.5 nM.

Reference: article PMC8429736, “Pharmacological characterization of mutant huntingtin aggregate-directed PET imaging tracer candidates” (Scientific Reports, 2021)
